According to patent US20150265682A1, “THERAPEUTIC METHODS AND COMPOSITIONS FOR TREATING DIABETES” (Orient Europharma Co., Ltd., priority 2014, published 2015):

Key:
[1] = system: normal mice and mice with type 2 DM; test: Intraperitoneal glucose tolerance test (IPGTT); format: in vivo, ICR mice
Method: (§1) After three days of acclimatization, the mice had free access to a standard rodent chow (normal mice), a standard rodent chow after single […] streptozotocin (STZ) intraperitoneal injection (T1DM mice), and a fat-rich chow diet and fructose-sweetened water (T2DM mice) for 4 weeks. The induction of Type 1 DM was assessed and confirmed when the mice had plasma glucose levels ≧350 mgdL^−1, accompanied with polyuria, hyperphagia and decreased body weight. The induction Type 2 DM in the mice was assessed by measuring fasting plasma glucose levels and confirmed when plasma glucose level was ≧150 mgdL^−1 after the 4-week induction. The animals were assigned randomly into three groups, with seven animals in each group. In group I, the mice were treated with vehicle, 2% DMSO in normal saline, as the negative control. In group II, the mice were intraperitoneally treated with borapetoside A (0.1-10 mgkg^−1). In group Ill, the positive control, the mice received intraperitoneally metformin (300 mgkg^−1; Sigma Chemical Co., St. Louis, Mo., U.S.A.) or insulin (0.5 IUkg^−1; Insulin Actrapid® HM; Novo Nordisk, Denmark). In the acute study, mice under anesthesia received a single intraperitoneal administration of borapetoside A, negative control, or positive control. In the subacute study, mice received intraperitoneal administrations of borapetoside A, vehicle, or insulin twice a day for seven days.
(§2) Blood samples were collected from the orbital vascular plexus of the mice under anesthesia. Blood samples were then centrifuged at 13000 rpm for 5 min, and the plasma samples were collected and kept on ice prior to the assay. The plasma glucose concentration was measured by Glucose Kit Reagent (Biosystems S. A., Barcelona, Spain) following the manufacturer's instructions, and the insulin levels were estimated using mouse insulin ELISA kit (Mercodia AB, Uppsala, Sweden).
The mice were maintained under anesthesia throughout the procedure. Glucose (2.0 gkg^−1) was administered intraperitoneally. Blood samples were collected from the orbital vascular plexus at 0, 30, 60, 120 min. The concentrations of the plasma glucose were measured, and the values of AUC were calculated accordantly.

[2] = system: normal mice, mice with type 1 DM, mice with type 2 DM; test: Plasma glucose after single intraperitoneal borapetoside A (acute study); format: in vivo, ICR mice; details: 60 min; for dose giving significant decrease of plasma glucose level: single i.p.
Method: The 4-week-old male ICR mice were purchased from the Animal Center of the College of Medicine, National Taiwan University (Taipei, Taiwan) with delicate humane care. This animal study was conducted by following the University ethical guidelines and the ‘Guide for the Care and Use of Laboratory Animals’ published by the US National Institutes of Health (NIH publication no. 85-23, revised 1996). The animal experiments were approved by the Institutional Animal Care and Use Committee (IACUC) of the National Taiwan University (IACUC No. 20110073). Animals were housed in a room at the constant temperature, 22±1° C., with 12 hours light and dark cycles.
as §1, with “In group Ill, the positive control, the mice received intraperitoneally metformin (300 mgkg^−1; Sigma Chemical Co., St. Louis, Mo., U.S.A.) or insulin (0.5 IUkg^−1; Insulin Actrapid® HM; Novo Nordisk, Denmark). In the acute study, mice under anesthesia received a single intraperitoneal administration of borapetoside A, negative control, or positive control. In the subacute study, mice received intraperitoneal administrations of borapetoside A, vehicle, or insulin twice a day for seven days.” left out
as §2, with “Blood samples were then centrifuged at 13000 rpm for 5 min, and the plasma samples were collected and kept on ice prior to the assay.” left out

In the case of `C[C@@]12C[C@@H](c3ccoc3)OC(=O)[C@@H]1C[C@@H]1OC(=O)[C@@]3(O)[C@@H](O[C@@H]4O[C@H](CO)[C@@H](O)[C@H](O)[C@H]4O)CC[C@@H]2[C@@]13C` [Borapetoside A, borapetoside A], the “increase of plasma glucose level at 30 min in IPGTT, compared to the vehicle group” value ([1]; normal and type 2 DM mice, borapetoside A 0.1, 1 and 10 mgkg^−1, metformin) is reported as “significantly suppressed”, the “area under the curve (AUC) in IPGTT” value ([1]; normal mice, 0.1 mgkg^−1) is reported as 78.8±3.0 % of vehicle control and the “area under the curve (AUC) in IPGTT” value ([1]; normal mice, 1 mgkg^−1) is reported as 69.9±7.1 % of vehicle control. The “area under the curve (AUC) in IPGTT” value ([1]; normal mice, 10 mgkg^−1) was 68.9±3.5 % of vehicle control, the “area under the curve (AUC) in IPGTT” value ([1]; type 2 DM bearing mice, 0.1 mgkg^−1) was 74.9±4.5 % of vehicle control and the “area under the curve (AUC) in IPGTT” value ([1]; type 2 DM bearing mice, 1 mgkg^−1) was 71.1±3.2 % of vehicle control. The “area under the curve (AUC) in IPGTT” value ([1]; type 2 DM bearing mice, 10 mgkg^−1) was 68.9±1.9 % of vehicle control, the “dose giving significant decrease of plasma glucose level” value ([2]; mice with type 2 DM) was “higher than 0.3 mgkg^−1” and the “dose giving significant decrease of plasma glucose level” value ([2]; normal mice) was no less than 1 mgkg^−1. For the same molecule, the plasma glucose level ([2]; normal, type 1 DM and type 2 DM mice, 0.1-10.0 mgkg^−1 single i.p.) was “lowered the plasma glucose level”.
